Experimental data taken from patent US6458748B1, “Di- or tri-fluoromethanesulfonyl anilide derivatives, process for the preparation of them and herbicides containing them as the active ingredient” (Ihara Chemical Industry Co., Ltd., priority 1998, dated 2002).

Experiments:
Sagittaria pygmaea Miq. = assay: Test 2 paddy pot herbicidal effect with water drainage and feeding; format: in vivo; conditions: water drainage and feeding 2 cm per day for two days, 28th day
Description: (§1) Further, a tuber of Sagittaria pygmaea Miq. was buried. […] For two days starting from the next day, water drainage and feeding each of 2 cm in depth per day were conducted.

[1] = system: Monochoria vaginalis (Burm. f.) Presl var. plantaginea (Roxb.) Solms-Laub.; assay: as above; format: in vivo; conditions: water drainage and feeding 2 cm per day for two days, 28th day
Description: as §1

[2] = system: Echinochloa oryzicola vasing.; assay: Test 3 herbicidal effect, application before germination or at 3-leaf stage; conditions: 28th day from application
[3] = system: Echinochloa oryzicola vasing.; assay: Test 1 paddy pot herbicidal effect, water surface application; format: in vivo; conditions: applied day after sowing, evaluated 28 days later
Description: (§2) Standard of herbicidal effect (level of suppression of development and growth) […] Herbicidal effect of 90% or more, injury to paddy rice […] Herbicidal effect of 70% or more to less than 90%, injury to paddy rice […] 2: […]

[4] = system: Monochoria vaginalis (Burm. f.) Presl var. plantaginea (Roxb.) Solms-Laub.; assay: as above; format: in vivo; conditions: applied day after sowing, evaluated 28 days later
Description: as §2

| Structure (SMILES) | Herbicidal effect (Ec) Application at 3-leaf stage ([2]; 0.3 g/10 ares) | Herbicidal effect (Ec) Application before germination ([2]; 0.3 g/10 ares) | Herbicidal effect (Ec) Application at 3-leaf stage ([2]; 0.6 g/10 ares) | Herbicidal effect (Ec) Application before germination ([2]; 0.6 g/10 ares) | Herbicidal effect (Ec) Application at 3-leaf stage ([2]; 1.3 g/10 ares) | Herbicidal effect (Ec) Application before germination ([2]; 1.3 g/10 ares) | Herbicidal effect (Ec) Application at 3-leaf stage ([2]; 2.5 g/10 ares) | Herbicidal effect (Ec) Application before germination ([2]; 2.5 g/10 ares) | Herbicidal effect (Ec) Application at 3-leaf stage ([2]; 5.0 g/10 ares) | Herbicidal effect (Ec) Application before germination ([2]; 5.0 g/10 ares) | Herbicidal effect Ec ([3]; 0.4 g/10 ares) | Herbicidal effect Ec ([3]; 1.6 g/10 ares) | Herbicidal effect Ec ([3]; 6.3 g/10 ares) | Herbicidal effect Ec ([3]; 25.0 g/10 ares) | Herbicidal effect Mo ([4]; 0.4 g/10 ares) | Herbicidal effect Mo ([4]; 1.6 g/10 ares) | Herbicidal effect Mo ([4]; 6.3 g/10 ares) | Herbicidal effect Mo ([4]; 25.0 g/10 ares) | further results |
| --- | --- | --- | --- | --- | --- | --- | --- | --- | --- | --- | --- | --- | --- | --- | --- | --- | --- | --- | --- |
| COc1cc(OC)nc(C(O)c2ccccc2NS(=O)(=O)C(F)F)n1 (centres unmarked) [Example 1, 2-[(4,6-dimethoxypyrimidine-2-yl)hydroxymethyl]-N-difluoromethanesulfonyl anilide] | 0 (Herbicidal effect of less than 10%, injury to paddy rice) | 1 (Herbicidal effect of 10% or more to less than 30%, injury to paddy rice) | 1 (Herbicidal effect of 10% or more to less than 30%, injury to paddy rice) | 2 (Herbicidal effect of 30% or more to less than 50%, injury to paddy rice) | 2 (Herbicidal effect of 30% or more to less than 50%, injury to paddy rice) | 3 (Herbicidal effect of 50% or more to less than 70%, injury to paddy rice) | 4 (Herbicidal effect of 70% or more to less than 90%, injury to paddy rice) | 5 (Herbicidal effect of 90% or more, injury to paddy rice) | 5 (Herbicidal effect of 90% or more, injury to paddy rice) | 5 (Herbicidal effect of 90% or more, injury to paddy rice) | 1 (Herbicidal effect of 10% or more to less than 30%, injury to paddy rice) | 3 (Herbicidal effect of 50% or more to less than 70%, injury to paddy rice) | 4 (Herbicidal effect of 70% or more to less than 90%, injury to paddy rice) | 5 (Herbicidal effect of 90% or more, injury to paddy rice) | 5 (Herbicidal effect of 90% or more, injury to paddy rice) | 5 (Herbicidal effect of 90% or more, injury to paddy rice) | 5 (Herbicidal effect of 90% or more, injury to paddy rice) | 5 (Herbicidal effect of 90% or more, injury to paddy rice) | Herbicidal effect Sc (Sagittaria pygmaea Miq.; 0.6 g/10 ares): 2 (Herbicidal effect of 30% or more to less than 50%, injury to paddy rice); Herbicidal effect Sc (Sagittaria pygmaea Miq.; 1.3 g/10 ares): 5 (Herbicidal effect of 90% or more, injury to paddy rice); Herbicidal effect Sc (Sagittaria pygmaea Miq.; 2.5 g/10 ares): 5 (Herbicidal effect of 90% or more, injury to paddy rice); Herbicidal effect Sc (Sagittaria pygmaea Miq.; 5.0 g/10 ares): 5 (Herbicidal effect of 90% or more, injury to paddy rice); Herbicidal effect Ec ([1]; 0.6 g/10 ares): 2 (Herbicidal effect of 30% or more to less than 50%, injury to paddy rice); Herbicidal effect Ec ([1]; 1.3 g/10 ares): 4 (Herbicidal effect of 70% or more to less than 90%, injury to paddy rice); Herbicidal effect Ec ([1]; 2.5 g/10 ares): 5 (Herbicidal effect of 90% or more, injury to paddy rice); Herbicidal effect Ec ([1]; 5.0 g/10 ares): 5 (Herbicidal effect of 90% or more, injury to paddy rice) |
| COCc1cccc(C(O)c2nc(OC)cc(OC)n2)c1NS(=O)(=O)C(F)F (centres unmarked) [Example 2, 2-[(4,6-dimethoxypyrimidine-2-yl)hydroxymethyl]-6-methoxymethyl-N-difluoromethanesulfonyl anilide] | 3 (Herbicidal effect of 50% or more to less than 70%, injury to paddy rice) | 4 (Herbicidal effect of 70% or more to less than 90%, injury to paddy rice) | 4 (Herbicidal effect of 70% or more to less than 90%, injury to paddy rice) | 5 (Herbicidal effect of 90% or more, injury to paddy rice) | 5 (Herbicidal effect of 90% or more, injury to paddy rice) | 5 (Herbicidal effect of 90% or more, injury to paddy rice) | 5 (Herbicidal effect of 90% or more, injury to paddy rice) | 5 (Herbicidal effect of 90% or more, injury to paddy rice) | 5 (Herbicidal effect of 90% or more, injury to paddy rice) | 5 (Herbicidal effect of 90% or more, injury to paddy rice) | 4 (Herbicidal effect of 70% or more to less than 90%, injury to paddy rice) | 5 (Herbicidal effect of 90% or more, injury to paddy rice) | 5 (Herbicidal effect of 90% or more, injury to paddy rice) | 5 (Herbicidal effect of 90% or more, injury to paddy rice) | 5 (Herbicidal effect of 90% or more, injury to paddy rice) | 5 (Herbicidal effect of 90% or more, injury to paddy rice) | 5 (Herbicidal effect of 90% or more, injury to paddy rice) | 5 (Herbicidal effect of 90% or more, injury to paddy rice) | – |
| CCc1cccc(C(O)c2nc(OC)cc(OC)n2)c1NS(=O)(=O)C(F)F (centres unmarked) [Example 3, 2-[(4,6-dimethoxypyrimidine-2-yl)hydroxymethyl]-6-ethyl-N-difluoromethanesulfonyl anilide] | 2 (Herbicidal effect of 30% or more to less than 50%, injury to paddy rice) | 4 (Herbicidal effect of 70% or more to less than 90%, injury to paddy rice) | 4 (Herbicidal effect of 70% or more to less than 90%, injury to paddy rice) | 5 (Herbicidal effect of 90% or more, injury to paddy rice) | 5 (Herbicidal effect of 90% or more, injury to paddy rice) | 5 (Herbicidal effect of 90% or more, injury to paddy rice) | 5 (Herbicidal effect of 90% or more, injury to paddy rice) | 5 (Herbicidal effect of 90% or more, injury to paddy rice) | 5 (Herbicidal effect of 90% or more, injury to paddy rice) | 5 (Herbicidal effect of 90% or more, injury to paddy rice) | 4 (Herbicidal effect of 70% or more to less than 90%, injury to paddy rice) | 5 (Herbicidal effect of 90% or more, injury to paddy rice) | 5 (Herbicidal effect of 90% or more, injury to paddy rice) | 5 (Herbicidal effect of 90% or more, injury to paddy rice) | 5 (Herbicidal effect of 90% or more, injury to paddy rice) | 5 (Herbicidal effect of 90% or more, injury to paddy rice) | 5 (Herbicidal effect of 90% or more, injury to paddy rice) | 5 (Herbicidal effect of 90% or more, injury to paddy rice) | – |
